# Literature values, collected in patent US12004545B2, “Infant nutrition delivering metabolic benefits” (SOCIÉTÉ DES PRODUITS NESTLÉ S.A., priority 2016, dated 2024).
# Settings: value used in the GL calculation
row,SMILES,GI of ingredient (available CHO)
1,OC[C@H]1O[C@@H](O[C@H]2[C@H](O)[C@@H](O)C(O)O[C@@H]2CO)[C@H](O)[C@@H](O)[C@H]1O (some centres unmarked) [lactose],46
2,OC[C@H]1O[C@@](CO)(O[C@H]2O[C@H](CO)[C@@H](O)[C@H](O)[C@H]2O)[C@@H](O)[C@@H]1O [sucrose],68
